The text below walks through data of PMC9516243, “Design of stapled peptide-based PROTACs for MDM2/MDMX atypical degradation and tumor suppression” (Theranostics, 2022).

Positions of bridges follow the written chain, without caps; N, C: chain ends. Non-standard residues stand in square brackets, D forms with d. Residues, ends and D or L forms follow the SMILES beside them. Hyp = O=C(O)[C@@H]1C[C@@H](O)CN1; R8 = C=CCCCCCC[C@@](C)(N)C(=O)O; hLeu = CC(C)CC[C@H](N)C(=O)O; S5 = C=CCCC[C@](C)(N)C(=O)O; AEA = NCCOCC(=O)O

One data set relates to α-Chymotrypsin. Briefly: Proteolytic stability against chymotrypsin. The conditions noted are these: chymotrypsin 5 ng/μl (10 μl) added to 1 ml of 1 mM peptide, PBS 50 mM pH 7.4, 2 mM CaCl2, 25°C, HPLC, 90 min, read-out: intact peptide still observed after proteolytic digestion for 90 min. The class given is in vitro ADME. The procedure:
Peptides were dissolved in PBS (50 mM, pH = 7.4) to a final concentration of 1 mM. α-Chymotrypsin was dissolved in PBS (50 mM, containing 2 mM of CaCl2, pH = 7.4) to a final concentration of 5 ng/μl. Then the peptide solutions (1 ml) were incubated with […] (10 μl) at 25°C. Samples were taken at 0, 5, 30, 60, 90, and 120 min and reactions were quenched with 20 μL of hydrochloric acid (1 M). The solution of the trypsin peptide fragments was monitored by HPLC at different time points to determine the fraction of protease degradation.

A further data set is described as follows: circular dichroism. The conditions noted are these: phosphate buffer (PB); pH 7.2; 20 °C; 10-50 uM. For orientation: Circular dichroism is the unequal absorption of left and right circularly polarised light.
The test system of data set [1] is HCT-116 subcutaneous xenograft. As to the kind of experiment: Subcutaneous HCT-116 xenograft model. The class given is in vivo, BALB/c nude mice. The procedure: Four-week-old male BALB/c nude mice (15-20 g) were used to establish subcutaneous and orthotopic xenograft models. A total of 5 × 10^6 HCT-116 cells were subcutaneously inoculated into the right flanks of the mice. Tumor volume was calculated using the following formula: V = (L × W^2)/2, where L is the length and W is the width of the tumor nodules measured with a vernier caliper. […] Drugs were intravenously injected into the mice every 2 days for 2 weeks. In addition, the model of orthotopic CRC xenografts was established. Briefly, mice were anesthetized after fasting for 12 h. Subsequently, the distal anal and rectal mucosa were exposed, and transanal injection of HCT-116 cells (5 × 10^6) was performed using a 30 G sterile needle. The injection was given directly into the rectal mucosa. Tumor growth was investigated, and once the tumors reached ~0.5 cm in size, the mice were randomly divided into two groups. The mice were treated every other day for 2 weeks with tail vein injections of either vehicle (saline) or sPMI-HIF2-1 (2 mg/kg). Body weight was measured before saline or drug injection. All mice were euthanized on day 14 following drug treatment, and the tumors were isolated, photographed, weighed, and measured.

The subject of another data set is HCT116 p53^-/- cells. Briefly: Cell viability assay (CCK-8). The class given is cell-based, human. The note with it: CCK-8, 72 h incubation, absorbance 450 nm; read-out: IC50 (μM) HCT116 p53^-/-.
[2] abbreviates: 10 mg/kg i.v. tail vein every other day for 2 weeks, tumor volume.

As to `CC(=O)N[C@H](C(=O)N[C@@H](CO)C(=O)N[C@@H](Cc1ccccc1)C(=O)N[C@]1(C)CCCCCCC=CCCC[C@@](C)(C(=O)NCCOCC(=O)N[C@@H](CC(C)C)C(=O)N[C@@H](C)C(=O)N2C[C@H](O)C[C@H]2C(=O)N[C@@H](Cc2ccc(O)cc2)C(=O)N[C@@H](CCC(C)C)C(=O)N2CCC[C@H]2C(N)=O)NC(=O)[C@H](CC(C)C)NC(=O)[C@H](CC(C)C)NC(=O)[C@H](C)NC(=O)[C@H](Cc2c[nH]c3ccccc23)NC(=O)[C@H](Cc2ccc(O)cc2)NC(=O)[C@H](CCC(=O)O)NC1=O)[C@@H](C)O` [SPMI-HIF2-1] (Ac-TSF[R8]EYWALL[S5][AEA]LA[Hyp]Y[hLeu]P-NH2; staple 4-11), the remaining at 1.5 h, 1 mM in the data set with α-Chymotrypsin is above 60%. In “circular dichroism”, this compound yielded a helicity of 37%. Further, in data set [1] (10 mg/kg i.v. every other day for 2 weeks), the body weight entry is “no obvious changes in body weight”. In data set [1] (setting [2]), the “inhibition of tumor growth, enhanced compared to the 50 mg/kg PMI-HIF1-1 group” value was 3 fold and the “inhibition of tumor growth, enhanced compared to the control group” value was found to be 5 fold. Further, in the data set with HCT116 p53^-/- cells, the IC50 is above 100 µM.
